Results on 1 compound are retold here after BindingDB's records for doi:10.1016/j.ejmech.2019.111726 (Jinan University, 2019).

Data set [1] in a line: Reversal of P-gp mediated multidrug resistance in human MCF7/ADM cells assessed as doxorubicin IC50 at 5 uM measured within 48 hrs by MTT assay (Rvb = 151.7 +/- 5 uM).
Data set [2] is described as follows: Reversal of P-gp mediated multidrug resistance in human MCF7/ADM cells assessed as doxorubicin IC50 at 10 uM measured within 48 hrs by MTT assay (Rvb = 151.7 +/- 5 uM).
Data set [3] can be described thus: Reversal of P-gp mediated multidrug resistance in human HepG2/DOX cells assessed as doxorubicin IC50 at 5 uM measured within 48 hrs by MTT assay (Rvb = 69.3 +/- 3.9 uM). A general note: Formazan colour is commonly taken as a measure of viable cells.
Data set [4] is described as follows: Reversal of P-gp mediated multidrug resistance in human HepG2/DOX cells assessed as doxorubicin IC50 at 10 uM measured within 48 hrs by MTT assay (Rvb = 69.3 +/- 3.9 uM).

The IC50 is the concentration that inhibits the measured activity by half. On to `CCCN(C(=O)CCCCCCC(=O)N(CCC)[C@H]1CC2=CC(=O)O[C@]23C[C@H]1N1CCCC[C@H]13)[C@H]1CC2=CC(=O)O[C@]23C[C@H]1N1CCCC[C@H]13`, for which the half-inhibitory concentration (IC50) turned out to be 14600 nM in data set [1], 1200 nM in data set [2], 1400 nM in data set [3] and 300 nM in data set [4].
